Results: US10442763B2, “EBNA1 inhibitors and methods using same” (priority 2015, dated 2019)
pIC50: −log10 of the molar value.

The molecules below were run against T1, His-EBNA1 (DNA binding domain of EBNA1, amino acids 459-607) (Epstein-Barr virus, UniProt P03211) (assay: Inhibition of 5'-biotin-oPL4624 binding to His-EBNA1 using Alpha Screen technology).
T1 construct: made in house; host or cells: E. coli
Protocol: Inhibition of 5′-Biotin-oPL4624 Binding to his-EBNA1 Using Alpha Screen Technology
Assays were performed using the DNA binding domain of EBNA1 (amino acids 459-607), which was His-tagged (His-EBNA1) and the self-complementary biotinylated (bt) oligonucleotide with the sequence 5′-bt-[…]-ATGCTACCC-3′ (bt-oPL4624; or 5′-bt-SEQ ID NO: 1). The protein was expressed in E. coli and purified according to Barwell, et al., 1995, J Biol Chem. 270:20556-9.). The bt-oPL4624 oligonucleotide was purchased from Integrated DNA Technologies, Inc (IDT). AlphaScreen donor, acceptor beads and white, opaque 384-well assay plates were purchased from PerkinElmer, Inc.
Assays contained 15 nM His-EBNA1, 0.2 nM bt-oPL4624, 5 μg/mL AlphaScreen streptavidin donor beads and nickel chelate acceptor beads, and a series of concentrations of test compound ranging from 3.2 nM to 100 μM in a total volume of 40 μL assay buffer (25 mM Tris, pH 7.2, 160 mM NaCl, 1 mM MgCl2). His-EBNA1 (30 nM) and bt-oPL4624 (0.4 nM) were preincubated with 10 μg/mL nickel chelate AlphaScreen acceptor bead, or 10 μg/mL streptavidin AlphaScreen donor bead, respectively, for 30 minutes at room temperature in assay buffer. Twenty microliters of His-EBNA1/acceptor bead mix and bt-oPL4624/donor bead mix were transferred to assay plates containing 0.4 μL of 1:3 serial dilutions of test compounds previously prepared in DMSO at concentrations ranging from 0.32 μM to 10 mM. Non-specific binding was determined with 5 μg/mL AlphaScreen acceptor bead in the absence of His-EBNA1. After 2 hr incubation at room temperature, the AlphaScreen signal was measured on the Envision plate reader (PerkinElmer, Inc.) at 680 nm excitation and 570 nm emission. Inhibition values at each concentration of test compound were determined by setting 100% equal to raw data values in the absence of EBNA1 and 0% equal to the raw data values in the presence of EBNA1. Nonlinear regression fits of the inhibition values to a one-site dose-response equation were performed using GraphPad Prism.

T1 sequence (P03211 459-607): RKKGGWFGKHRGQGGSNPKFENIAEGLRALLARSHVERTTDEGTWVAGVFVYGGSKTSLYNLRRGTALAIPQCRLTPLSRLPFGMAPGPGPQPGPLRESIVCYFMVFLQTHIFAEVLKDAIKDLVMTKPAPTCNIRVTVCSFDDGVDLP

SMILES	pIC50
O=C(O)c1cccc(C#Cc2ccc3ccn(CCN4CCOCC4)c3c2)c1-c1ccc2cc[nH]c2c1 [Entry 1]	4.00 to 5.00
CC(=O)Nc1cc(C#Cc2cccc(C(=O)O)c2-c2ccc3cc[nH]c3c2)ccc1OC1CCOCC1 [Entry 2]	4.00 to 5.00
CC(=O)N1C2CCC1CC(c1ccc(C#Cc3cccc(C(=O)O)c3-c3ccc4cc[nH]c4c3)cc1)C2 (stereo not drawn) [Entry 3]	4.00 to 5.00
CN(C)CCn1ccc2cc(C#Cc3cccc(C(=O)O)c3-c3ccc4cc[nH]c4c3)cnc21 [Entry 4]	5.00 to 6.00
CN(C)CCCn1ccc2cc(C#Cc3cccc(C(=O)O)c3-c3ccc4cc[nH]c4c3)cnc21 [Entry 5]	4.00 to 5.00
O=C(O)c1cccc(C#Cc2cnc3c(ccn3CCCN3CCOCC3)c2)c1-c1ccc2cc[nH]c2c1 [Entry 6]	5.00 to 6.00
O=C(O)c1cccc(C#Cc2cn(CCCN3CCOCC3)c3ncccc23)c1-c1ccc2cc[nH]c2c1 [Entry 7]	4.00 to 5.00
O=C(O)c1cccc(C#Cc2cnc3c(ccn3CCN3CCOCC3)c2)c1-c1ccc2cc[nH]c2c1 [Entry 8]	5.00 to 6.00
O=C(O)c1cccc(C#Cc2cn(CCN3CCOCC3)c3ncccc23)c1-c1ccc2cc[nH]c2c1 [Entry 10]	4.00 to 5.00
CN(C)CCCn1cc(C#Cc2cccc(C(=O)O)c2-c2ccc3cc[nH]c3c2)c2cccnc21 [Entry 11]	3.00 to 4.00
O=C(O)c1cccc(C#Cc2cnc3c(ccn3CCN3CCS(=O)(=O)CC3)c2)c1-c1ccc2cc[nH]c2c1 [Entry 12]	4.00 to 5.00
O=C(O)c1cccc(C#Cc2ccc3c(ccn3CCN3CCOCC3)c2)c1-c1ccc2cc[nH]c2c1 [Entry 13]	4.00 to 5.00
O=C(O)c1cccc(C#Cc2ccc3c(ccn3CCCN3CCOCC3)c2)c1-c1ccc2cc[nH]c2c1 [Entry 14]	4.00 to 5.00
O=C(O)c1cccc(C#Cc2ccc3ccn(CCCN4CCOCC4)c3c2)c1-c1ccc2cc[nH]c2c1 [Entry 15]	4.00 to 5.00
O=C(O)c1cccc(C#Cc2cnc3c(c2)CCCN3)c1-c1ccc2cc[nH]c2c1 [Entry 16]	5.00 to 6.00
O=C(O)c1cccc(C#Cc2cnc3c(ccn3CC3CCOCC3)c2)c1-c1ccc2cc[nH]c2c1 [Entry 17]	5.00 to 6.00
O=C(O)c1cccc(C#Cc2ccc3c(ccn3CC3CCOCC3)c2)c1-c1ccc2cc[nH]c2c1 [Entry 18]	5.00 to 6.00
CS(=O)(=O)N1CCC(Cn2ccc3cc(C#Cc4cccc(C(=O)O)c4-c4ccc5cc[nH]c5c4)ccc32)CC1 [Entry 19]	5.00 to 6.00
CS(=O)(=O)N1CCC(Cn2ccc3cc(C#Cc4cccc(C(=O)O)c4-c4ccc5cc[nH]c5c4)cnc32)CC1 [Entry 20]	5.00 to 6.00
O=C(O)c1cccc(C#Cc2cnc3c(ccn3CC3CCS(=O)(=O)CC3)c2)c1-c1ccc2cc[nH]c2c1 [Entry 21]	5.00 to 6.00
O=C(O)c1cccc(C#Cc2ccc3c(ccn3CCN3CCS(=O)(=O)CC3)c2)c1-c1ccc2cc[nH]c2c1 [Entry 22]	5.00 to 6.00
O=C(O)c1cccc(C#Cc2ccc3ccn(CCN4CCS(=O)(=O)CC4)c3c2)c1-c1ccc2cc[nH]c2c1 [Entry 23]	4.00 to 5.00
O=C(O)c1cccc(C#Cc2ccc3c(ccn3CCCN3CCS(=O)(=O)CC3)c2)c1-c1ccc2cc[nH]c2c1 [Entry 24]	4.00 to 5.00
O=C(O)c1cccc(C#Cc2ccc3ccn(CCCN4CCS(=O)(=O)CC4)c3c2)c1-c1ccc2cc[nH]c2c1 [Entry 25]	5.00 to 6.00
O=C(O)c1cccc(C#Cc2ccc(COC3CCS(=O)(=O)CC3)cc2)c1-c1ccc2cc[nH]c2c1 [Entry 26]	4.00 to 5.00
O=C(O)c1cccc(C#Cc2ccc(COC3CCOCC3)cc2)c1-c1ccc2cc[nH]c2c1 [Entry 27]	4.00 to 5.00
CC(C)OCc1ccc(C#Cc2cccc(C(=O)O)c2-c2ccc3cc[nH]c3c2)cc1 [Entry 28]	5.00 to 6.00

SMILES	pIC50
O=C(O)c1cccc(C#Cc2ccc(OC3CC[S+]([O-])CC3)cc2)c1-c1ccc2cc[nH]c2c1 (stereo not drawn) [Entry 29]	4.00 to 5.00
O=C(O)c1cccc(C#Cc2ccc3c(CN4CCOCC4)c[nH]c3c2)c1-c1ccc2cc[nH]c2c1 [Entry 30]	4.00 to 5.00
CS(=O)(=O)N1CCN(Cc2c[nH]c3cc(C#Cc4cccc(C(=O)O)c4-c4ccc5cc[nH]c5c4)ccc23)CC1 [Entry 31]	5.00 to 6.00
O=C(O)c1cccc(C#Cc2ccc3c(CN4CCS(=O)(=O)CC4)c[nH]c3c2)c1-c1ccc2cc[nH]c2c1 [Entry 32]	5.00 to 6.00
O=C(O)c1cccc(C#Cc2ccc3cc(CN4CCOCC4)[nH]c3c2)c1-c1ccc2cc[nH]c2c1 [Entry 33]	4.00 to 5.00
O=C(O)c1cccc(C#Cc2ccc3cc(CN4CCS(=O)(=O)CC4)[nH]c3c2)c1-c1ccc2cc[nH]c2c1 [Entry 34]	5.00 to 6.00
O=C(O)c1cccc(C#Cc2cc3ccn(CC4CCOCC4)c3cc2F)c1-c1ccc2cc[nH]c2c1 [Entry 35]	5.00 to 6.00
O=C(O)c1cccc(C#Cc2ccc3ccn(CC4CCOCC4)c3c2F)c1-c1ccc2cc[nH]c2c1 [Entry 36]	5.00 to 6.00
O=C(O)c1cccc(C#Cc2ccc3ccn(CC4CCS(=O)(=O)CC4)c3c2F)c1-c1ccc2cc[nH]c2c1 [Entry 37]	5.00 to 6.00
O=C(O)c1cccc(C#Cc2cc3ccn(CC4CCS(=O)(=O)CC4)c3cc2F)c1-c1ccc2cc[nH]c2c1 [Entry 38]	5.00 to 6.00
O=C(O)c1cccc(C#Cc2ccc3c(CN4CCOCC4)c[nH]c3c2F)c1-c1ccc2cc[nH]c2c1 [Entry 39]	5.00 to 6.00
O=C(O)c1cccc(C#Cc2cc3c(CN4CCOCC4)c[nH]c3cc2F)c1-c1ccc2cc[nH]c2c1 [Entry 40]	4.00 to 5.00
O=C(O)c1cccc(C#Cc2ccc(-c3nn[nH]n3)cc2)c1-c1ccc2cc[nH]c2c1 [Entry 41]	> 6.00
O=C(O)c1cccc(C#Cc2cccc(-c3nn[nH]n3)c2)c1-c1ccc2cc[nH]c2c1 [Entry 42]	> 6.00
O=C(O)c1cccc(C#Cc2ccc(-c3cnco3)cc2)c1-c1ccc2cc[nH]c2c1 [Entry 43]	5.00 to 6.00
O=C(O)c1cccc(C#Cc2ccc(-c3ccc(=O)[nH]n3)cc2)c1-c1ccc2cc[nH]c2c1 [Entry 44]	5.00 to 6.00
COc1cc(C#Cc2cccc(C(=O)O)c2-c2ccc3cc[nH]c3c2)ccc1CN1CCOCC1 [Entry 45]	4.00 to 5.00
O=C(O)c1cccc(C#Cc2ccc(C(=O)N3CCOCC3)c(O)c2)c1-c1ccc2cc[nH]c2c1 [Entry 46]	4.00 to 5.00
COc1cc(C#Cc2cccc(C(=O)O)c2-c2ccc3cc[nH]c3c2)ccc1CN1CCC(N2CCOCC2)CC1 [Entry 47]	3.00 to 4.00
COc1cc(C#Cc2cccc(C(=O)O)c2-c2ccc3cc[nH]c3c2)ccc1CN1CCC(F)(F)CC1 [Entry 48]	5.00 to 6.00
O=C(O)c1cccc(C#Cc2ccc(C(=O)N3CCC(N4CCOCC4)CC3)c(O)c2)c1-c1ccc2cc[nH]c2c1 [Entry 50]	5.00 to 6.00
O=C(O)c1cccc(C#Cc2ccc(C(=O)N3CCC(F)(F)CC3)c(O)c2)c1-c1ccc2cc[nH]c2c1 [Entry 51]	5.00 to 6.00
CS(=O)(=O)N1CCC(Cc2ccc(C#Cc3cccc(C(=O)O)c3-c3ccc4cc[nH]c4c3)cc2)CC1 [Entry 52]	5.00 to 6.00
O=C(O)c1cccc(C#Cc2ccc(CC3CCN(S(=O)(=O)C(F)(F)F)CC3)cc2)c1-c1ccc2cc[nH]c2c1 [Entry 53]	5.00 to 6.00
CC(C)S(=O)(=O)N1CCC(Cc2ccc(C#Cc3cccc(C(=O)O)c3-c3ccc4cc[nH]c4c3)cc2)CC1 [Entry 54]	5.00 to 6.00
CC(=O)N1CCC(Cc2ccc(C#Cc3cccc(C(=O)O)c3-c3ccc4cc[nH]c4c3)cc2)CC1 [Entry 55]	5.00 to 6.00
CC(=O)N1Cc2ccc(C#Cc3cccc(C(=O)O)c3-c3ccc4cc[nH]c4c3)cc2C1 [Entry 56]	5.00 to 6.00
